Where “and” joins values, the source holds several entries; their conditions need not be identical. Equal entries are not always repeated.
What was measured:
[1] = system: spontaneously hypertensive rats (SHR); assay: Blood pressure and heart rate in anesthetized spontaneously hypertensive rats (SHR), i.v.; assay type: in vivo, rat; settings: for % change in BP (mean arterial blood pressure ± standard error) / % change in heart rate (± standard error): four rats
Experimental: The compounds of this invention I, and III are effective in the treatment of hypertension.
Adult male spontaneously hypertensive rats (SHR) (Taconic Farms, Germantown, N.Y.), weighing approximately 300 g. were anesthetized with pentobarbital sodium (60 mg./kg., i.p.). The trachea was cannulated and SHR respired room air. Pulsatile arterial blood pressure was measured from a cannulated carotid artery using a Statham transducer (P23 ID). Mean arterial blood pressure was calculated as diastolic blood pressure plus 1/3 pulse pressure. Cardiac rate was monitored by a cardiotachometer which was triggered by the systolic pressure pulse. Drug solutions were administered i.v. through a catheter placed in a femoral vein. Arterial blood pressure and cardiac rate were recorded on a multichannel oscillograph (Beckman, Model R511A). Fifteen minutes were allowed to elapse following surgery for equilibration of the preparation.
In the table, column 1 gives the name of the drug, column 2 dose in μg/kg, column 3 percent change in mean arterial blood pressure plus or minus standard error and column 4, percent change in heart rate plus or minus standard error. Four rats were used at each dose level.

[2] = system: apomorphine binding sites; assay: Inhibition of 3H-apomorphine binding (vs spiperone sites); settings: printed as 40 to 1
Text: With trans-(±)-2-methyl-5-n-propyl-4,4a,5,6,7,8,8a,9-octahydrooxazolo[4,5-g]quinoline; the ratio of binding, to apomorphine sites vs spiperone sites is 40 to 1.

Row | SMILES | % change in BP (mean arterial blood pressure ± standard error) ([1]; dose 1 μg/kg) [%] | % change in heart rate (± standard error) ([1]; dose 1 μg/kg) [%] | % change in BP (mean arterial blood pressure ± standard error) ([1]; dose 10 μg/kg) [%] | % change in heart rate (± standard error) ([1]; dose 10 μg/kg) [%] | Duration of change in BP ([1]; dose 100 μg/kg) | % change in BP (mean arterial blood pressure ± standard error) ([1]; dose 100 μg/kg) [%] | % change in heart rate (± standard error) ([1]; dose 100 μg/kg) | Duration of change in BP ([1]; dose 1000 μg/kg) | % change in BP (mean arterial blood pressure ± standard error) ([1]; dose 1000 μg/kg) [%] | % change in heart rate (± standard error) ([1]; dose 1000 μg/kg) [%] | ratio of binding, to apomorphine sites vs spiperone sites [2] | % change in BP (mean arterial blood pressure ± standard error) ([1]; dose 0.1 μg/kg) [%] | % change in heart rate (± standard error) ([1]; dose 0.1 μg/kg) [%]
1 | CCCN1CCC[C@H]2Cc3nc(C)oc3C[C@@H]21 (racemic) [Trans-(±)-2-methyl-5-n-propyl-4,4a,5,6,7,8,8a,9-octahydro-oxazolo[4,5-g]quinoline] | -3.2 ± 0.5 | -2.4 ± 0.8 | -7.0 ± 1.0 | -2.8 ± 0.4 | * (Duration of 15 min or greater) | -19.6 ± 1.4 | -16.1 ± 7.6% | * (Duration of 15 min or greater) | -26.2 ± 4.3 | -23.6 ± 4.4 | 40 |  | 
2 | CCCN1CCC[C@H]2Cc3nc(N)oc3C[C@@H]21 (racemic) [Trans-(±)-2-amino-5-n-propyl-4,4a,5,6,7,8,8a,9-octahydro-oxazolo[4,5-g]quinoline] | -8.6 ± 1.6 | -4.4 ± 0.9 | -15.1 ± 1.1 | -5.6 ± 0.7 | * (Duration of 15 min or greater) |  | -17.5 ± 2.3% and -19.1 ± 3.4% |  |  |  |  | -18.3 ± 5.7 | -8.5 ± 2.2
3 | CCCN1CCC[C@H]2Cc3ncoc3C[C@@H]21 (racemic) [trans-(±)-5-n-propyl-4,4a,5,6,7,8,8a,9-octahydro-oxazolo[4,5-g]quinoline] | -5.0 ± 1.2 | -3.6 ± 0.5 | -10.2 ± 1.0 | -4.6 ± 0.6 | * (Duration of 15 min or greater) | -27.4 ± 20 | -28.5 ± 2.6% | * (Duration of 15 min or greater) | -37.7 ± 4.9 | -31.8 ± 3.7 |  |  | 

From patent US4698347A, “Octahydro-oxazolo[4,5-g]quinolines derivatives and decahydro quinoline intermediates and their use as dopamine D-2 agonists” (Eli Lilly and Company, priority 1986, dated 1987)
